Source: patent US20100150839A1, “Compositions and Methods for Modulating Cognitive Function” (Massachusetts Institute of Technology, priority 2005, published 2010)

System: cultured primary hippocampal neurons
Test: Translation reporter assay: EGFP-αCaMKII 3′ UTR reporter mRNA transfected into neurons
Type: cell-based, rat

## N#CC(=C(/N)Sc1ccccc1N)/C(C#N)=C(\N)Sc1ccccc1N [U0126]
  Translation of EGFP-αCaMKII-A20 reporter mRNA: still more strongly inhibited
